Two molecules from patent US11767286B2, “Phenylpropionate compound, preparation method for same, and applications thereof” (SUZHOU PHARMAVAN CO., LTD, priority 2017, dated 2023) can be followed below.

SMILES strings stand for the structures. Like-named read-outs stand apart in the source and are kept apart here.

Series [1] concerns rats with acute cerebral ischemia-reperfusion. Nature of the series: Blood viscosity of rats with acute cerebral ischemia-reperfusion (blood viscometer). The class given is in vivo, SD rats. Details: unit not given here. The conditions noted are these: 4 mg/kg iv 2 h after reperfusion; blood 4 h after administration; n=5. Here is the method:
Trial method: Effects on inflammatory factors and blood viscosity of rats with acute cerebral ischemia-reperfusion: 70 Male SD rats underwent an MACO surgery by a suture method, and after the surgery, alive rats were randomly grouped (into 7 groups, the number of successful animals in each group was guaranteed to be 6 to 8). Blood perfusion was recovered 2 h after MCAO, and corresponding trial medicaments were intravenously injected 2 h after blood reperfusion. 4 hours after the administration, blood was collected and the rats were sacrificed to take out brain tissues. The brain tissues and part of the blood were centrifuged to collect serum which was detected for inflammatory factors, and part of the blood was detected for blood viscosity by using a blood viscometer. Detected indicators: cerebral infarction area; inflammatory factors IL-1β and TNF-α; and blood viscosity.
Table 2 lists results of effects of phenylpropionate compounds (4 mg/kg) on blood viscosity of rats (n=5).

The test system of series [2] is platelet aggregation induced with ADP. The experiment in a line: Maximum platelet aggregation rate of rabbits, induced with ADP. It is filed as cell-based. As to conditions: rabbit plasma, 4 mg/kg as printed, n=3; for inhibition at 4 mg/kg: Oryctolagus cuniculus, Platelet. The method, then:
Effects on maximum platelet aggregation rate of rabbits: 3 Rabbits were anesthetized, and blood was collected from the heart to obtain 14 parts of plasma for each rabbit (1 ml per part of plasma). 7 Parts were induced with ADP to allow platelet aggregation, and 7 parts were induced with a platelet activating factor. After the induction, a solvent, positive control drug aspirin, and 5 samples to be trialed were separately added to the plasma, and maximum platelet aggregation rate was detected with a platelet aggregation meter. The trials were repeated 3 times, and an average was taken. Detected indicator: maximum platelet aggregation rate.
Table 4 lists results of effects of phenylpropionate compounds (4 mg/kg) on platelet aggregation rate of rabbits (n=3).

In series [3] the test system is SD rat model of focal ischemia-reperfusion. Nature of the series: Dose-effect relationship in SD rat model of focal ischemia-reperfusion (MCAO). It is filed as in vivo, SD rats. The conditions noted are these: given 2 h after reperfusion, mean ± standard error; for Score of Symptoms of Neurological Deficits: 48 h, modified Bederson 5-point scale; for Infarction area: evaluated after 48 h. The method, then: In this example, phenylpropionate compounds were studied for dose-effect relationship, with D-bornyl ferulate (administrated at 4.0 mg/kg) and D-tanshinol borneol ester (administrated at 4.0 mg/kg) as positive control drugs. Structures of D-bornyl ferulate (Patent Application No.: 201510243181.5) and D-tanshinol borneol ester compounds are as follows:
Trial method: A cerebral ischemia reperfusion model of middle cerebral artery occlusion (MCAO) was prepared by an internal carotid artery suture method. An animal was anesthetized with 10% chloral hydrate (3.6 mL/kg) and then fixed on an operating table in a supine position. Its skin was disinfected, and a midline incision was made on the neck. The right common carotid artery, external carotid artery, and internal carotid artery were separated, the vagus nerve was gently striped off, and the external carotid artery was ligated and cut. The common carotid artery was clamped at the proximal end. […] The nylon thread was advanced through the bifurcation of the common carotid artery into the internal carotid artery, and then was slowly inserted until there was slight resistance (about 20 mm from the bifurcation) to block all the blood supply to the middle cerebral artery. 2 h after cerebral ischemia, the nylon thread was gently pulled out to restore blood supply for reperfusion, and the neck skin was sutured and disinfected. The animal was put back in a cage and raised. During the modeling operation, animals with abnormal conditions due to anesthesia, surgery, etc. were excluded, and successfully modeled animals were randomly grouped. Schemes were set according to different trial doses, and drug treatment was given 2 h after cerebral ischemia-reperfusion. Death conditions were recorded every day after the surgery, and indicators were evaluated after 48 h. In the whole trial process, general conditions were observed, mainly including: death, coma, breathing, urine and feces traits, hair colors, mental status, vomiting and vomitus, bleeding, convulsion, spasm, etc. Abnormal animals due to unexpected factors were excluded. Finally, unblinding was conducted by a person who made blind trials.
Evaluated indicator: (1) Evaluation of symptoms of neurological deficits: The symptoms of neurological deficits were evaluated by using a modified Bederson 5-point scale. A single-blind method was used for evaluating the symptoms of neurological deficits in rats with brain trauma. That is, a trial designer marked animals in accordance with groups, and an experimenter who scored the symptoms of neurological deficits had no knowledge of how the animals were grouped. After scoring was completed, the scorer submitted scoring results for various marks to the designer, and the designer performed unblinding to obtain scores of animals in each trial group. (2) Measurement of cerebral infarction area: A method reported in the literature was used. An animal was anesthetized with 10% chloral hydrate and decapitated to collect brain. The olfactory bulb, cerebellum and lower brain stem were removed. Blood stains on the surface of the brain were rinsed with normal saline, the residual water stains on the surface were absorbed, and the brain was placed at −80° C. for 7 min. After the brain was taken out, a coronal section was immediately made at downwards and vertical to the sight intersection plane, and brain slices were made every 2 mm backwards. Brain slices were placed in a TTC (20 g/L) dye solution prepared with 0.9% normal saline, and incubated at 37° C. for 90 min. Normal brain tissues were stained deep red, and ischemic brain tissues were pale-white. After rinsed with normal saline, the brain sections were quickly arranged in order from front to back, the residual water stains on the surface were absorbed to dryness, and pictures were taken. Image analysis software was used for statistics on the pictures. […]

A short description of series [4]: Distribution in brain: plasma and intracerebral concentrations after intravenous injection. The class given is in vivo. As to conditions: both sexes, rat, rats, 4 mg/kg iv; for Kp at 10 min / Kp at 60 min / Kp at 180 min: brain/plasma, read-out: Brain/Blood Concentration Ratio. The method, then: In this example, Compounds A to E, D-bornyl ferulate, and D-tanshinol borneol ester were measured for distribution in brain. Structures of D-bornyl ferulate (Patent Application No.: 201510243181.5) and D-tanshinol borneol ester compounds are as follows:
Method for testing distribution in brain: 42 rats with a weight range of 200±20 g were taken. The rats were randomly divided into 7 groups, with 6 rats per group, half male and half female. Rats were fasted with free access to water for 12 h and then intravenously injected with 4 mg/kg of a compound. Rats in the 3 groups were sacrificed through femoral artery bleeding and collected for blood 10 min, 60 min, 180 min after administration, respectively. Brains were taken out, 0.2 g was weighted, and 1 mL of pure water was added for homogenizing. The blood samples and brain homogenate samples were stored at −20° C.
Distribution of Compounds A to E, and D-bornyl ferulate and D-tanshinol borneol ester compounds in brain: Data on concentrations of Compounds A to E, D-bornyl ferulate, and D-tanshinol borneol ester in plasma and intracerebral in rats intravenously injected with 4 mg/kg of Compounds A to E, D-bornyl ferulate, and D-tanshinol borneol ester are listed in Table 9.

[5] abbreviates: brain, read-out: Mean Intracerebral Concentration.
Where [6] appears, read: plasma, read-out: Mean Plasma Concentration.

What is called inhibition is how much of the control response was suppressed. As for `COc1cc(CCC(=O)O[C@H]2C[C@H]3CC[C@]2(C)C3(C)C)cc(F)c1O` [Compound A], in series [1], the “Blood viscosity, High Shear” value came out at 2.56 ± 0.057 and the “Blood viscosity, Low Shear” value is listed as 13.2 ± 0.535. Moreover, in series [2], the inhibition at 4 mg/kg was 52.3% and the “Maximum Aggregation Rate” value is reported as 15.7 ± 6.31 %. In series [3] (2.0 mg/kg), the “Score of Symptoms of Neurological Deficits” value was 2.05 ± 0.20 and the Infarction area worked out at 24.73 ± 2.63 %. Besides, in series [3] (4.0 mg/kg), the “Score of Symptoms of Neurological Deficits” value amounted to 1.94 ± 0.19 and the Infarction area turned out to be 20.25 ± 2.53 %. Besides, in series [3] (8.0 mg/kg), the “Score of Symptoms of Neurological Deficits” value was found to be 1.75 ± 0.21 and the Infarction area is recorded as 18.38 ± 2.74 %. For the same molecule, in series [4], the Kp at 10 min came to 2.6, the Kp at 60 min amounted to 5.7 and the Kp at 180 min was found to be 3.2. In series [4] (setting [5]), the concentration at 10 min is 2640 ± 517 ng/g, the concentration at 60 min is 1420 ± 309 ng/g and the concentration at 180 min is 311 ± 115 ng/g. Also, in series [4] (setting [6]), the concentration at 10 min turned out to be 1020 ± 192 ng/mL, the concentration at 60 min stood at 252 ± 76.5 ng/mL and the concentration at 180 min was found to be 97.3 ± 22.7 ng/mL.

Turning to `COc1cc(CCC(=O)O[C@H]2C[C@H]3CC[C@]2(C)C3(C)C)cc(OC)c1O` [Compound C], in series [1], the “Blood viscosity, High Shear” value came out at 2.70 ± 0.982 and the “Blood viscosity, Low Shear” value stood at 13.9 ± 1.014. In series [2], the inhibition at 4 mg/kg amounted to 56.5% and the “Maximum Aggregation Rate” value came out at 14.3 ± 5.64 %. For the same molecule, in series [3] (2.0 mg/kg), the “Score of Symptoms of Neurological Deficits” value worked out at 2.45 ± 0.13 and the Infarction area is listed as 22.24 ± 2.84 %. Also, in series [3] (4.0 mg/kg), the “Score of Symptoms of Neurological Deficits” value was found to be 2.18 ± 0.23 and the Infarction area is reported as 21.04 ± 2.14 %. For the same molecule, in series [3] (8.0 mg/kg), the “Score of Symptoms of Neurological Deficits” value is on record as 1.98 ± 0.14 and the Infarction area came to 19.32 ± 3.53 %. In series [4], the Kp at 10 min amounted to 2.9, the Kp at 60 min was found to be 11 and the Kp at 180 min came to 2. In series [4] (setting [5]), the concentration at 10 min was 2630 ± 167 ng/g, the concentration at 60 min is 1870 ± 406 ng/g and the concentration at 180 min was determined as 188 ± 51.9 ng/g. For the same molecule, in series [4] (setting [6]), the concentration at 10 min came to 906 ± 145 ng/mL, the concentration at 60 min came to 160 ± 49.1 ng/mL and the concentration at 180 min stood at 92.2 ± 35.5 ng/mL.
